Source: PubChem BioAssay AID256 (DTP/NCI, 2004)
“And” between values parts separate entries of the source, which are not always exact repeats. Equal entries are not always repeated. Toxic doses and inconclusive results are not listed. Rule for the calls: active = survival T/C of 150% or more; inactive = T/C below 125% in these data.

Tested on: CD2F1 mice, L1210 leukemia ip, survival T/C
Experiment: NCI In Vivo Anticancer Drug Screen. Data for tumor model L1210 Leukemia (intraperitoneal) in CD2F1 (CDF1) mice
Settings: higher = longer survival
Procedure, shortened: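 Read-out first: treated-group measurement over vehicle-control measurement, expressed as a ratio. Animals bore a transplanted tumor line and were dosed with compound or vehicle.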

[1] = endpoint: mean survival time, dose: 6.25 mg/kg/injection, schedule: Q04DX003 (ip), vehicle: saline with Tween-80
[2] = endpoint: mean survival time, dose: 12.5 mg/kg/injection, schedule: Q04DX003 (ip), vehicle: saline with Tween-80
[3] = endpoint: mean survival time, dose: 25.0 mg/kg/injection, schedule: Q04DX003 (ip), vehicle: saline with Tween-80
[4] = endpoint: mean survival time, dose: 100.0 mg/kg/injection, schedule: Q01DX009 (ip), vehicle: saline with Tween-80
[5] = endpoint: mean survival time, dose: 100.0 mg/kg/injection, schedule: Q04DX003 (ip), vehicle: saline with Tween-80
[6] = endpoint: mean survival time, dose: 200.0 mg/kg/injection, schedule: Q01DX009 (ip), vehicle: saline with Tween-80
[7] = endpoint: mean survival time, dose: 200.0 mg/kg/injection, schedule: Q04DX003 (ip), vehicle: saline with Tween-80
[8] = endpoint: mean survival time, dose: 400.0 mg/kg/injection, schedule: Q04DX003 (ip), vehicle: saline with Tween-80
[9] = endpoint: mean survival time, dose: 25.0 mg/kg/injection, schedule: Q01DX009 (ip), vehicle: saline with Tween-80
[10] = endpoint: mean survival time, dose: 50.0 mg/kg/injection, schedule: Q01DX009 (ip), vehicle: saline with Tween-80

Measured: T/C

CNCCNC1=C(Cl)C(=O)c2ccccc2C1=O
inactive: [1] 101 % of control | [2] 101 % of control | [3] 96 % of control and 102 % of control

Cc1nc(-c2ccccc2)[nH]c(=O)c1CC(C)O (stereo not drawn)
inactive: [4] 91 % of control | [5] 94 % of control | [6] 96 % of control | [7] 95 % of control | [8] 92 % of control

NC(=O)c1n[nH]c(C2OC(CO)C(O)C2O)n1 (stereo not drawn)
inactive: endpoint: mean survival time, dose: 12.5 mg/kg/injection, schedule: Q01DX005 (ip), vehicle: water 94 % of control | endpoint: mean survival time, dose: 25.0 mg/kg/injection, schedule: Q01DX005 (ip), vehicle: water 92 % of control | endpoint: mean survival time, dose: 50.0 mg/kg/injection, schedule: Q01DX005 (ip), vehicle: water 94 % of control | endpoint: mean survival time, dose: 100.0 mg/kg/injection, schedule: Q01DX005 (ip), vehicle: water 94 % of control | endpoint: mean survival time, dose: 200.0 mg/kg/injection, schedule: Q01DX005 (ip), vehicle: water 96 % of control

CC[N+](CC)=c1ccc2nc3c(cc(N)c4ccccc43)oc-2c1
inactive: endpoint: mean survival time, dose: 6.25 mg/kg/injection, schedule: Q01DX009 (ip), vehicle: saline sonified 97 % of control | [1] 101 % of control | endpoint: mean survival time, dose: 12.5 mg/kg/injection, schedule: Q01DX009 (ip), vehicle: saline sonified 104 % of control | [2] 101 % of control | [3] 98 % of control

CCCCCCCCCCCCCCCCCC(=O)NCCN(CC)CC
inactive: endpoint: mean survival time, dose: 75.0 mg/kg/injection, schedule: Q01DX001 (ip), vehicle: saline 101 % of control

CP1(=S)CCC(O)(c2ccccc2)CC1 (stereo not drawn)
inactive: [9] 101 % of control | endpoint: mean survival time, dose: 25.0 mg/kg/injection, schedule: Q04DX002 (ip), vehicle: saline with Tween-80 91 % of control | [10] 89 % of control | endpoint: mean survival time, dose: 50.0 mg/kg/injection, schedule: Q04DX002 (ip), vehicle: saline with Tween-80 91 % of control | [4] 97 % of control | endpoint: mean survival time, dose: 100.0 mg/kg/injection, schedule: Q04DX002 (ip), vehicle: saline with Tween-80 95 % of control

CCCCOC(=O)c1ccc(NC(=O)Nc2cc([N+](=O)[O-])ccc2C)cc1
inactive: endpoint: mean survival time, dose: 50.0 mg/kg/injection, schedule: Q01DX009 (ip), vehicle: Klucel (hydroxypropylcellulose) (HPC) 101 % of control | endpoint: mean survival time, dose: 100.0 mg/kg/injection, schedule: Q01DX009 (ip), vehicle: Klucel (hydroxypropylcellulose) (HPC) 89 % of control | endpoint: mean survival time, dose: 200.0 mg/kg/injection, schedule: Q01DX009 (ip), vehicle: Klucel (hydroxypropylcellulose) (HPC) 104 % of control

CC(=O)OCC1OC(OC(C)=O)C(NC(=O)N(CCN(C)CCO)N=O)C(OC(C)=O)C1OC(C)=O (stereo not drawn)
inactive: endpoint: mean survival time, dose: 4.06 mg/kg/injection, schedule: Q04DX002 (ip), vehicle: saline + alcohol 100 % of control | endpoint: mean survival time, dose: 8.13 mg/kg/injection, schedule: Q04DX002 (ip), vehicle: saline + alcohol 101 % of control | endpoint: mean survival time, dose: 16.25 mg/kg/injection, schedule: Q04DX002 (ip), vehicle: saline + alcohol 101 % of control | endpoint: mean survival time, dose: 32.5 mg/kg/injection, schedule: Q04DX002 (ip), vehicle: saline + alcohol 97 % of control | endpoint: mean survival time, dose: 65.0 mg/kg/injection, schedule: Q04DX002 (ip), vehicle: saline + alcohol 101 % of control | endpoint: mean survival time, dose: 130.0 mg/kg/injection, schedule: Q04DX002 (ip), vehicle: saline + alcohol 107 % of control

C[C@]12CCCC[C@@H]1CC[C@@H]1[C@@H]2CC[C@]2(C)C(=O)CC[C@@H]12
inactive: [5] 92 % of control | [7] 91 % of control | [8] 89 % of control

C1CCC2CCCN2CC1 (stereo not drawn)
inactive: endpoint: mean survival time, dose: 12.5 mg/kg/injection, schedule: Q01DX009 (ip), vehicle: saline with Tween-80 95 % of control | endpoint: mean survival time, dose: 12.5 mg/kg/injection, schedule: Q04DX003 (ip), vehicle: acetone 94 % of control | [9] 94 % of control | endpoint: mean survival time, dose: 25.0 mg/kg/injection, schedule: Q04DX003 (ip), vehicle: acetone 92 % of control | endpoint: mean survival time, dose: 50.0 mg/kg/injection, schedule: Q04DX003 (ip), vehicle: acetone 100 % of control

O=C(SSCCSSCCSSC(=O)N1CCOCC1)N1CCOCC1
inactive: endpoint: mean survival time, dose: 100.0 mg/kg/injection, schedule: Q01DX001 (ip), vehicle: Klucel (hydroxypropylcellulose) (HPC) 93 % of control | endpoint: mean survival time, dose: 200.0 mg/kg/injection, schedule: Q01DX001 (ip), vehicle: Klucel (hydroxypropylcellulose) (HPC) 100 % of control | endpoint: mean survival time, dose: 400.0 mg/kg/injection, schedule: Q01DX001 (ip), vehicle: Klucel (hydroxypropylcellulose) (HPC) 93 % of control

CCC1(CC)C(=O)C=CNC1=O
inactive: [10] 100 % of control | [4] 94 % of control | [6] 103 % of control

C=CCc1nc2c(N)ncnc2n1C1OC(CO)C(O)C1O (stereo not drawn)
inactive: endpoint: median survival time, dose: 12.5 mg/kg/injection, schedule: Q01DX005 (ip), vehicle: water 105 % of control | endpoint: median survival time, dose: 25.0 mg/kg/injection, schedule: Q01DX005 (ip), vehicle: water 104 % of control | endpoint: median survival time, dose: 50.0 mg/kg/injection, schedule: Q01DX005 (ip), vehicle: water 102 % of control | endpoint: median survival time, dose: 100.0 mg/kg/injection, schedule: Q01DX005 (ip), vehicle: water 102 % of control | endpoint: median survival time, dose: 200.0 mg/kg/injection, schedule: Q01DX005 (ip), vehicle: water 104 % of control

CC(=O)OC1COC(n2nnc(C#N)c2C#N)C(OC(C)=O)C1OC(C)=O (stereo not drawn)
inactive: endpoint: mean survival time, dose: 12.5 mg/kg/injection, schedule: Q01DX005 (ip), vehicle: distilled water + Tween-80 103 % of control and 98 % of control | endpoint: mean survival time, dose: 25.0 mg/kg/injection, schedule: Q01DX005 (ip), vehicle: distilled water + Tween-80 97 % of control and 103 % of control | endpoint: mean survival time, dose: 50.0 mg/kg/injection, schedule: Q01DX005 (ip), vehicle: distilled water + Tween-80 98 % of control and 101 % of control | endpoint: mean survival time, dose: 100.0 mg/kg/injection, schedule: Q01DX005 (ip), vehicle: distilled water + Tween-80 104 % of control and 106 % of control | endpoint: mean survival time, dose: 200.0 mg/kg/injection, schedule: Q01DX005 (ip), vehicle: distilled water + Tween-80 95 % of control

O=NN1CCOC1=NC1CCCCC1
inactive: endpoint: mean survival time, dose: 3.12 mg/kg/injection, schedule: Q01DX001 (ip), vehicle: distilled water + Tween-80 97 % of control | endpoint: mean survival time, dose: 6.25 mg/kg/injection, schedule: Q01DX001 (ip), vehicle: distilled water + Tween-80 94 % of control | endpoint: mean survival time, dose: 12.5 mg/kg/injection, schedule: Q01DX001 (ip), vehicle: distilled water + Tween-80 98 % of control | endpoint: mean survival time, dose: 25.0 mg/kg/injection, schedule: Q01DX001 (ip), vehicle: distilled water + Tween-80 97 % of control | endpoint: mean survival time, dose: 50.0 mg/kg/injection, schedule: Q01DX001 (ip), vehicle: distilled water + Tween-80 100 % of control | endpoint: mean survival time, dose: 100.0 mg/kg/injection, schedule: Q01DX001 (ip), vehicle: distilled water + Tween-80 100 % of control | endpoint: mean survival time, dose: 200.0 mg/kg/injection, schedule: Q01DX001 (ip), vehicle: distilled water + Tween-80 110 % of control | endpoint: mean survival time, dose: 400.0 mg/kg/injection, schedule: Q01DX001 (ip), vehicle: distilled water + Tween-80 110 % of control

N#CCCOCC(COCCC#N)OCCC#N
inactive: [9] 97 % of control and 103 % of control | [10] 98 % of control and 103 % of control | [4] 97 % of control and 110 % of control | [6] 89 % of control and 103 % of control

O=C(Oc1ccc(OC(=O)c2ccccc2)c2c1C(=O)C(CBr)=C(CBr)C2=O)c1ccccc1
inactive: endpoint: mean survival time, dose: 0.75 mg/kg/injection, schedule: Q01DX009 (ip), vehicle: water 93 % of control | endpoint: mean survival time, dose: 1.5 mg/kg/injection, schedule: Q01DX009 (ip), vehicle: water 101 % of control | endpoint: mean survival time, dose: 3.0 mg/kg/injection, schedule: Q01DX009 (ip), vehicle: water 93 % of control and 97 % of control | endpoint: mean survival time, dose: 6.0 mg/kg/injection, schedule: Q01DX009 (ip), vehicle: water 93 % of control and 95 % of control | endpoint: mean survival time, dose: 12.0 mg/kg/injection, schedule: Q01DX009 (ip), vehicle: water 93 % of control | endpoint: mean survival time, dose: 12.5 mg/kg/injection, schedule: Q01DX009 (ip), vehicle: water 86 % of control | endpoint: mean survival time, dose: 24.0 mg/kg/injection, schedule: Q01DX009 (ip), vehicle: water 90 % of control | endpoint: mean survival time, dose: 25.0 mg/kg/injection, schedule: Q01DX009 (ip), vehicle: water 91 % of control | endpoint: mean survival time, dose: 50.0 mg/kg/injection, schedule: Q01DX009 (ip), vehicle: water 87 % of control | endpoint: mean survival time, dose: 100.0 mg/kg/injection, schedule: Q01DX009 (ip), vehicle: water 100 % of control | endpoint: mean survival time, dose: 200.0 mg/kg/injection, schedule: Q01DX009 (ip), vehicle: water 86 % of control

O=C1OCC/C1=C/c1cccc(O)c1
inactive: endpoint: mean survival time, dose: 6.25 mg/kg/injection, schedule: Q04DX002 (ip), vehicle: Klucel (hydroxypropylcellulose) (HPC) 103 % of control | endpoint: mean survival time, dose: 25.0 mg/kg/injection, schedule: Q04DX002 (ip), vehicle: Klucel (hydroxypropylcellulose) (HPC) 107 % of control
